This is an account of results in ChEMBL document CHEMBL1147805, “A new non-azole inhibitor of ABA 8'-hydroxylase: effect of the hydroxyl group substituted for geminal methyl groups in the six-membered ring” (Bioorg Med Chem Lett, 2006).

What is called Ki is the dissociation constant of the complex between target and ligand, obtained from inhibition or displacement.

For data set [1], the target named is T1, Abscisic acid 8'-hydroxylase 3 (Arabidopsis thaliana, UniProt Q9FH76).
T1 sequence (Q9FH76 whole entry): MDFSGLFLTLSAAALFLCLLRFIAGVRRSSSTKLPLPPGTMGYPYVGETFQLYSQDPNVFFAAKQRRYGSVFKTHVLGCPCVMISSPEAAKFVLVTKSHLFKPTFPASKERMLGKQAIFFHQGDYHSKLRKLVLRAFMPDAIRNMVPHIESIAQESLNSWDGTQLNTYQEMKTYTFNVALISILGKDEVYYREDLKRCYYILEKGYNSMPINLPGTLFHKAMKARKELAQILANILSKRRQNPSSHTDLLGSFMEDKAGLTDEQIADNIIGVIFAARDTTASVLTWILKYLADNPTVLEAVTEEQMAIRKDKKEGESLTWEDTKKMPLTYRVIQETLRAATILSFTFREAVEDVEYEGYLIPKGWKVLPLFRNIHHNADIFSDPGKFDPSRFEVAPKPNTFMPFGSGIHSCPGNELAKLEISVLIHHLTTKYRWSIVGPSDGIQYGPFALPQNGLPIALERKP
Put plainly: Activity against CYP707A3 by rice seedling elongation assay at 1 uM. Type of data set: functional. The settings on record: oryza sativa.

Data set [2] relates to Radish. Put plainly: Induction of drought-stress tolerance in radish seedlings at 400 uM. Type of data set: functional, organism-based. The settings on record: Raphanus sativus.
The target of data set [3] is T1, Abscisic acid 8'-hydroxylase 3. As to the kind of experiment: Activity against CYP707A3 by rice seedling elongation assay at 30 uM. Type of data set: functional. The settings on record: oryza sativa.
For data set [4] the target is unchanged. As to the kind of experiment: Inhibition of Arabidopsis recombinant CYP707A3.

Calls of active or inactive are those of the source. The calls are words filed in the database; no cut-off is given here.

On to `CC1=CC(=O)CC(C)(C)C1(O)/C=C/C(C)=C\C(=O)O` (stereo unspecified) [ABSCISIC ACID], for which the Activity in data set [1] stood at 22%.

For `C[C@@H]1CCC[C@H](O)[C@@]1(O)/C=C/C=C\C(=O)O` (racemic), in data set [2], the outcome was inactive. For `C[C@H]1CCC[C@H](O)[C@@]1(O)/C=C/C=C\C(=O)O`, the Activity in data set [3] was determined as 96%. In data set [4], the inhibition constant (Ki) was determined as 140 nM. Also, the result in data set [2] was Active. In the case of `C[C@H]1CCCC(C)(C)[C@@]1(O)/C=C/C=C\C(=O)O`, in data set [4], the Ki amounted to 1400 nM.
